Test results from patent publication US12421253B2 (Mirati Therapeutics, Inc., priority 2020, dated 2025).

Experiments:
ASPC1 cells, pERK = assay: Inhibition of KRas phosphorylation of ERK (Cisbio HTRF Advanced pERK assay); format: cell-based; settings: Homo sapiens, ASPC1, 3 h, AsPC-1 cells, read-out: Inhibition (HTRF IC50 nM) of KRas-mediated Phosphorylation of ERK, AsPC-1
Procedure: (§1) Inhibition of KRas Phosphorylation of ERK (HTRF) by Exemplary Compounds of Formula (I)
(§2) Cisbio HTRF Advanced pERK Assay Catalog #64AERPEH
(§3) • Day 1: Seed 6,000 cells/well −25 μl/well in 384-well white solid bottom plate; RPM1_10% FBS. […] To harvest cells from flask using 0.05% Trypsin/EDTA solution. Add 10 mL of media to stop trypsinizing. Pipette the cells into a conical bottom 50 mL centrifuge tube and centrifuge 5 min×1000 rpm. • 2. Re-suspend the cell pellet in media, take a cell count, and then adjust the cell density using fresh media. • 3. Seed 6,000 cells into cell culture plate with […]. The • 4. Incubate cell plate overnight in a 37° C., 5% CO2 incubator. Compound Titrations • 1. Use Tecan to complete the compound addition. Compounds start from 10 uM top, 3-fold dilution, and 10 doses. The final DMSO concentration is 0.8%. Dispensed 0.2 uM Trametinib as Min control. • 2. Incubate cell plate for 3 hrs in the incubator. Detection with Cisbio pERK HTRF Kit • 1. Dilute 1 volume of 4× lysis buffer with 3 volumes of deionized water. Then, add 100× the blocking reagent. Keep lysis buffer on the ice. • 2. At the end of the compound treatment, flick-off the media. • 3. Add 35 μL of lysis buffer per well using a Multidrop Combi. Then place on a plate agitator shaking at 300 rpm at 4° C. for 40 mins. • 4. Make up the HTRF antibody buffer. For each assay plate, mix 50 μL of d2-conjugate antibody with 950 μL of detection buffer. Similarly, mix 50 μL of Cryptate antibody with 950 μL of detection buffer. Then mix the two diluted antibodies together. • 5. Dispense 3.4 μL the antibody buffer to wells of an empty assay plate. Seal the plate and centrifuge plate 30 sec×1000 rpm. • 6. At the end of the 4° C. lysis, centrifuge the lysate plates 3 mins×1500 rpm. • 7. Use the Bravo to transfer 13.6 μL of lysate from cell culture plate to assay plate. Then incubate assay plate for 2 hrs at room temperature. • 8. At the end of incubation, read plate on the Envision after centrifuging plate 30 sec×1000 rpm.

H727 cells, pERK = assay: as above; format: cell-based; settings: Homo sapiens, NCI-H727, 3 h, read-out: Inhibition (HTRF IC50 nM) of KRas-mediated Phosphorylation of ERK, H727
Procedure: as §1, §2, §3

KRas^G12D = target: T1, KRas^G12D (Homo sapiens, UniProt P01116, G12D); assay: KRas binding assay (TR-FRET displacement of Cy5 labelled tracer)
T1 construct: […]; biotin (biotinylated); purchased Accelegan Inc
Procedure: (§4) The ability of a compound to bind to KRas was measured using a TR-FRET displacement assay. […] After a 60-minute incubation at room temperature, the reaction was measured using a BMG LABTECH CLARIO star Plus via TR-FRET. […] The POC values were fit to a 4-parameter IC50 equation and the IC50 value reported.

KRas^G12R = target: T2, KRas^G12R (Homo sapiens, UniProt P01116, G12R); assay: as above
T2 construct: […]; biotin (biotinylated); purchased Accelegan Inc
Procedure: as §4

KRas^G12V = target: T3, KRas^G12V (Homo sapiens, UniProt P01116, G12V); assay: as above
T3 construct: […]; biotin (biotinylated); purchased Accelegan Inc
Procedure: as §4

KRas^G12C = KRas^G12C (Homo sapiens, UniProt P01116, G12C); assay: biochemical
Procedure: as §4

KRas^G13D = KRas^G13D (Homo sapiens, UniProt P01116, G13D); assay: biochemical
Procedure: as §4

KRas^WT = target: T4, KRas^WT (Homo sapiens, UniProt P01116); assay: KRas binding assay (TR-FRET displacement of Cy5 labelled tracer)
T4 construct: […]; biotin (biotinylated); purchased Accelegan Inc
Procedure: as §4

KRas^G12S = target: T5, KRas^G12S (Homo sapiens, UniProt P01116, G12S); assay: as above
T5 construct: […]; biotin (biotinylated); purchased Accelegan Inc
Procedure: as §4

KRas^Q61H = KRas^Q61H (Homo sapiens, UniProt P01116, Q61H); assay: biochemical
Procedure: as §4

KRas^G12A = target: T6, KRas^G12A (Homo sapiens, UniProt P01116, G12A); assay: KRas binding assay (TR-FRET displacement of Cy5 labelled tracer)
T6 construct: […]; biotin (biotinylated); purchased Accelegan Inc
T6 sequence (P01116 1-169 isoform P01116-2 G12A): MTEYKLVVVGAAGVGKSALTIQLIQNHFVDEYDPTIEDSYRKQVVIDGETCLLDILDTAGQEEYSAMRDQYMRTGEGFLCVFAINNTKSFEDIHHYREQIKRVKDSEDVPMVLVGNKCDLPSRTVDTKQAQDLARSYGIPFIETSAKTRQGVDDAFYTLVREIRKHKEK
Procedure: as §4

T1 sequence (P01116 1-169 isoform P01116-2 G12D): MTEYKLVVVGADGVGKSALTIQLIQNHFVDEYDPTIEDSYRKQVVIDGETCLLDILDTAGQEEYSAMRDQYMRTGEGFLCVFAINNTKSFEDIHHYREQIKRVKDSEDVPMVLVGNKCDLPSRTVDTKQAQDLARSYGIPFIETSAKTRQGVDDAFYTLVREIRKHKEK
T2 sequence (P01116 1-169 isoform P01116-2 G12R): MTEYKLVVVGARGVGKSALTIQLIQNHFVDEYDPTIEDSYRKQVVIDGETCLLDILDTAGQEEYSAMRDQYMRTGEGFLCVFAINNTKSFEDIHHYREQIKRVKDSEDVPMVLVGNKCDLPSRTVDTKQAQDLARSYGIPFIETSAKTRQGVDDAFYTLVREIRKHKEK
T3 sequence (P01116 1-169 isoform P01116-2 G12V): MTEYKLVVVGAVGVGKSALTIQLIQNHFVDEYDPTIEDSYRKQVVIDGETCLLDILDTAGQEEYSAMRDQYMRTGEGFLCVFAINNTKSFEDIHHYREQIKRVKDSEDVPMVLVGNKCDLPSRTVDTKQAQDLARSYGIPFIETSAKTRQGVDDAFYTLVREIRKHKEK
T4 sequence (P01116 1-169 isoform P01116-2): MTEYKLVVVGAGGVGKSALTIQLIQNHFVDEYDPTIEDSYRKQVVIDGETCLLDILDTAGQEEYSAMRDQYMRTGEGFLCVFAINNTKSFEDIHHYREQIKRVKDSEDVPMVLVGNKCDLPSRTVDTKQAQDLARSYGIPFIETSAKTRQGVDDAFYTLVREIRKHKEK
Chain of KRas^G12C (P01116 1-169 isoform P01116-2 G12C): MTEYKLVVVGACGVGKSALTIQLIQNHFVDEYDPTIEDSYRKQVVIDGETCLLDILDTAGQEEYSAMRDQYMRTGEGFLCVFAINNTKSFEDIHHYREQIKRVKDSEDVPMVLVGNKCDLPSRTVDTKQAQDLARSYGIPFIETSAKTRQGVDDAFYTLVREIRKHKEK
Chain of KRas^Q61H (P01116 1-169 isoform P01116-2 Q61H): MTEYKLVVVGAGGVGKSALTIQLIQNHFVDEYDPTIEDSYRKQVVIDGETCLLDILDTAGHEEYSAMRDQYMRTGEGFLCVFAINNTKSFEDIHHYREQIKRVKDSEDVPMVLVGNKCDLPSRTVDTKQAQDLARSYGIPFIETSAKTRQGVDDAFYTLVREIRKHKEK
T5 sequence (P01116 1-169 isoform P01116-2 G12S): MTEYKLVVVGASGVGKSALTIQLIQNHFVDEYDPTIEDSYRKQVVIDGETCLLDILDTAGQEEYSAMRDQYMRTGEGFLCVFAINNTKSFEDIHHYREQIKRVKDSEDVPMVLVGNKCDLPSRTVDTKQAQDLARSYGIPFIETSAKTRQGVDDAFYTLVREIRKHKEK
Chain of KRas^G13D (P01116 1-169 isoform P01116-2 G13D): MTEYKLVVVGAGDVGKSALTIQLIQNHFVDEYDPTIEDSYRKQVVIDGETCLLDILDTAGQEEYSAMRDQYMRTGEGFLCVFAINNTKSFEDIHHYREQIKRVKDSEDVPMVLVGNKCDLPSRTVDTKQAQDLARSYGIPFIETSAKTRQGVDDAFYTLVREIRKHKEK

Row | Structure (SMILES) | IC50 (ASPC1 cells, pERK) [nM] | IC50 (H727 cells, pERK) [nM] | IC50 (KRas^G12D) [nM] | IC50 (KRas^G12R) [nM] | IC50 (KRas^G12V) [nM] | IC50 (KRas^G12C) [nM] | IC50 (KRas^G13D) [nM] | IC50 (KRas^WT) [nM] | IC50 (KRas^G12S) [nM] | IC50 (KRas^Q61H) [nM] | IC50 (KRas^G12A) [nM]
1 | CN1CCC[C@H]1COc1nc2c(c(N3CCCC4(CNS(=O)(=O)N4)C3)n1)CCN(c1cccc3cccc(Cl)c13)C2 (stereo partly drawn) [Example 208, 9-[7-(8-chloro-1-naphthyl)-2-[[(2S)-1-methylpyrrolidin-2-yl]methoxy]-6,8-dihydro-5H-pyrido[3,4-d]pyrimidin-4-yl]-2λ6-thia-1,3,9-triazaspiro[4.5]decane 2,2-dioxide] | 4050 | 6940 | 136 | 350 | 197 |  |  |  |  |  | 
2 | CN1CCC[C@H]1COc1nc2c(c(N3CCCC4(C3)NC(=O)NC4=O)n1)CCN(c1cccc3cccc(Cl)c13)C2 (stereo partly drawn) [Example 211, 9-[7-(8-chloro-1-naphthyl)-2-[[(2S)-1-methylpyrrolidin-2-yl]methoxy]-6,8-dihydro-5H-pyrido[3,4-d]pyrimidin-4-yl]-1,3,9-triazaspiro[4.5]decane-2,4-dione] | 4890 | 2880 | 101 | 34 | 38 |  |  |  |  |  | 
3 | CN(C)C(=O)c1cc2n(n1)CCCN(c1nc(OC[C@@H]3CCCN3C)nc3c1CCN(c1cccc4cccc(Cl)c14)C3)C2 [Example 209, (S)-5-(7-(8-chloronaphthalen-1-yl)-2-((1-methylpyrrolidin-2-yl)methoxy)-5,6,7,8-tetrahydropyrido[3,4-d]pyrimidin-4-yl)-N,N-dimethyl-5,6,7,8-tetrahydro-4H-pyrazolo[1,5-a][1,4]diazepine-2-carboxamide] | 7200 | 8520 | 1120 | 4140 | 1900 |  |  |  |  |  | 
4 | CCc1c(F)ccc2cc(O)cc(N3CCc4c(nc(OC[C@@]56CCCN5C[C@H](F)C6)nc4N4C[C@H](O)C[C@H](C(N)=O)C4)C3)c12 [Example 187, (3S,5R)-1-(7-(8-ethyl-7-fluoro-3-hydroxynaphthalen-1-yl)-2-(((2R,7aS)-2-fluorohexahydro-1H-pyrrolizin-7a-yl)methoxy)-5,6,7,8-tetrahydropyrido[3,4-d]pyrimidin-4-yl)-5-hydroxypiperidine-3-carboxamide] | 5330 | 1320 | 4 | ≤ 2 | ≤ 2 |  |  |  |  |  | 
5 | Cc1cc2[nH]ncc2c(N2CCc3c(nc(OCC45CCCN4CCC5)nc3N3CCC[C@@](C)(O)C3)C2)c1C [Example 15, (R)-1-(7-(5,6-dimethyl-1H-indazol-4-yl)-2-((hexahydro-1H-pyrrolizin-7a-yl)methoxy)-5,6,7,8-tetrahydropyrido[3,4-d]pyrimidin-4-yl)-3-methylpiperidin-3-ol] | 1110 | 3190 | 126 | 144 | 103 |  |  |  |  |  | 
6 | CCc1c(F)ccc2cc(O)cc(N3CCc4c(nc(OC[C@@]56CCCN5C[C@H](F)C6)nc4N4C[C@H](O)C[C@@H](C(N)=O)C4)C3)c12 [Example 186, (3R,5R)-1-(7-(8-ethyl-7-fluoro-3-hydroxynaphthalen-1-yl)-2-(((2R,7aS)-2-fluorohexahydro-1H-pyrrolizin-7a-yl)methoxy)-5,6,7,8-tetrahydropyrido[3,4-d]pyrimidin-4-yl)-5-hydroxypiperidine-3-carboxamide] | 4360 | 2670 | ≤ 2 | ≤ 2 | ≤ 2 |  |  |  |  |  | 
7 | CCc1cccc2cccc(N3CCc4c(nc(OCC56CCCN5CCC6)nc4N4C[C@@H]5C(=O)NC(=O)[C@@H]5C4)C3)c12 [Example 11, (3aR,6aS)-5-(7-(8-ethylnaphthalen-1-yl)-2-((tetrahydro-1H-pyrrolizin-7a(5H)-yl)methoxy)-5,6,7,8-tetrahydropyrido[3,4-d]pyrimidin-4-yl)tetrahydropyrrolo[3,4-c]pyrrole-1,3(2H,3aH)-dione] |  |  | 22 | 42 | 18 | 41 | 42 | 51 | 15 | 50 | 45
